From PubChem BioAssay (NCI)
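Following 48 hours of exposure in 96-well plates, responses at five concentrations were used to interpolate endpoints linearly. The concentration for 50% growth inhibition is given as GI50. TGI is the concentration that stops growth completely.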

How the values were obtained:
Experiment in all cases: DTP human tumour cell line panel, 48 h
[1] = system: 786-0 renal
[2] = system: A498 renal
[3] = system: A549 NSCLC
[4] = system: ACHN renal
[5] = system: BT-549 breast
[6] = system: CAKI-1 renal
[7] = system: CCRF-CEM leukemia
[8] = system: COLO 205 colon
[9] = system: DU-145 prostate
[10] = system: EKVX NSCLC
[11] = system: HCT-116 colon
[12] = system: HCT-15 colon
[13] = system: HL-60(TB) leukemia
[14] = system: HOP-62 NSCLC
[15] = system: HOP-92 NSCLC
[16] = system: HS 578T breast
[17] = system: HT29 colon
[18] = system: IGROV1 ovarian
[19] = system: K-562 leukemia
[20] = system: KM12 colon
[21] = system: LOX IMVI melanoma
[22] = system: M14 melanoma
[23] = system: MALME-3M melanoma
[24] = system: MCF7 breast
[25] = system: MDA-MB-231 breast
[26] = system: MDA-MB-435
[27] = system: MOLT-4 leukemia
[28] = system: NCI-H226 lung
[29] = system: NCI-H23 lung
[30] = system: NCI-H460 lung
[31] = system: NCI-H522 lung
[32] = system: NCI/ADR-RES ovarian
[33] = system: OVCAR-3 ovarian
[34] = system: OVCAR-5 ovarian
[35] = system: OVCAR-8 ovarian
[36] = system: PC-3 prostate
[37] = system: RPMI-8226 leukemia
[38] = system: RXF 393 renal
[39] = system: SF-268 CNS
[40] = system: SF-295 CNS
[41] = system: SF-539 CNS
[42] = system: SK-MEL-5 melanoma
[43] = system: SK-OV-3 ovarian
[44] = system: SN12C renal
[45] = system: SNB-19 CNS
[46] = system: SW-620 colon
[47] = system: T-47D breast
[48] = system: TK-10 renal
[49] = system: U251 CNS
[50] = system: UACC-257 melanoma
[51] = system: UACC-62 melanoma
[52] = system: UO-31 renal
[53] = system: HCC-2998 colon
[54] = system: SK-MEL-2 melanoma
[55] = system: SK-MEL-28 melanoma
[56] = system: SNB-75 CNS
[57] = system: SR leukemia

## CCCNC(=O)OCc1c(COC(=O)NCCC)c(-c2ccc(Cl)c(Cl)c2)n2c1CCC2
[1]
  TGI: 11.4 µM
[2]
  TGI: 3.24 µM
[3]
  TGI: 33.2 µM
[4]
  TGI: 6.28 µM
[5]
  TGI: 15.9 µM
[6]
  TGI: 8.2 µM
[7]
  TGI: 7.95 µM
[8]
  TGI: 13.2 µM
[9]
  TGI: > 100 µM
[10]
  TGI: 30.2 µM
[11]
  TGI: 17.7 µM
[12]
  TGI: 19.8 µM
[13]
  TGI: 7.7 µM
[14]
  TGI: 22.3 µM
[15]
  TGI: 9.98 µM
[16]
  TGI: 26.2 µM
[17]
  TGI: 19.2 µM
[18]
  TGI: 5.54 µM
[19]
  TGI: 26.6 µM
[20]
  TGI: 28.5 µM
[21]
  TGI: 15.8 µM
[22]
  TGI: 24.4 µM
[23]
  TGI: 9.72 µM
[24]
  TGI: 19.8 µM
[25]
  TGI: 21.9 µM
[26]
  TGI: 29.8 µM
[27]
  TGI: 87.7 µM
[28]
  TGI: 7.53 µM
[29]
  TGI: 26.5 µM
[30]
  TGI: 17.2 µM
[31]
  TGI: 4.32 µM
[32]
  TGI: 17.4 µM
[33]
  TGI: 41.5 µM
[34]
  TGI: 20.4 µM
[35]
  TGI: 16.9 µM
[36]
  TGI: 28.4 µM
[37]
  TGI: 24.4 µM
[38]
  TGI: 9.35 µM
[39]
  TGI: 21.5 µM
[40]
  TGI: 12.3 µM
[41]
  TGI: 11.3 µM
[42]
  TGI: 19.5 µM
[43]
  TGI: 10.5 µM
[44]
  TGI: 19.4 µM
[45]
  TGI: 39.1 µM
[46]
  TGI: 20.6 µM
[47]
  TGI: > 100 µM
[48]
  TGI: 18.9 µM
[49]
  TGI: 28.9 µM
[50]
  TGI: 20.1 µM
[51]
  TGI: 13.3 µM
[52]
  TGI: 12.6 µM

## CN(C)CCNc1nc2ccccc2c2[nH]c3ccccc3c12
[1]
  GI50: 0.396 µM
  TGI: 2.51 µM
[2]
  GI50: 5.32 µM
  TGI: 11 µM
[3]
  GI50: 0.37 µM
  TGI: 10.1 µM
[4]
  GI50: 0.19 µM
  TGI: 1.21 µM
[5]
  GI50: 2.58 µM
  TGI: 8.83 µM
[6]
  GI50: 0.344 µM
  TGI: 1.76 µM
[7]
  GI50: 0.937 µM
  TGI: 3.95 µM
[8]
  GI50: 0.316 µM
  TGI: 1.09 µM
[9]
  GI50: 1.06 µM
  TGI: 6.93 µM
[10]
  GI50: 1.7 µM
  TGI: 14.3 µM
[53]
  GI50: 0.483 µM
  TGI: 2.38 µM
[11]
  GI50: 0.106 µM
  TGI: 2.25 µM
[13]
  GI50: 1.55 µM
  TGI: 3.77 µM
[14]
  GI50: 0.203 µM
  TGI: 1.8 µM
[15]
  GI50: 0.464 µM
  TGI: 2.42 µM
[16]
  GI50: 4.01 µM
  TGI: 13.6 µM
[17]
  GI50: 0.188 µM
  TGI: > 77.1 µM
[18]
  GI50: 0.97 µM
  TGI: > 31.7 µM
[19]
  GI50: 0.748 µM
  TGI: 9.23 µM
[20]
  GI50: 0.328 µM
  TGI: 2.92 µM
[21]
  GI50: 0.301 µM
  TGI: 1.11 µM
[22]
  GI50: 0.41 µM
  TGI: 1.71 µM
[24]
  GI50: 0.129 µM
  TGI: 0.941 µM
[25]
  GI50: 1.22 µM
  TGI: 3.99 µM
[26]
  GI50: 0.42 µM
  TGI: 1.71 µM
[27]
  GI50: 0.571 µM
  TGI: 2.37 µM
[28]
  GI50: 0.587 µM
  TGI: 4.74 µM
[29]
  GI50: 0.96 µM
  TGI: 4.65 µM
[30]
  GI50: 0.244 µM
  TGI: 1.97 µM
[31]
  GI50: 1.33 µM
[32]
  GI50: 1.02 µM
  TGI: 7.86 µM
[33]
  GI50: 0.438 µM
  TGI: 2.01 µM
[34]
  GI50: 1.56 µM
  TGI: 21.9 µM
[35]
  GI50: 0.535 µM
  TGI: 9.93 µM
[36]
  GI50: 0.574 µM
  TGI: 2.8 µM
[37]
  GI50: 0.648 µM
  TGI: 1.97 µM
[38]
  GI50: 1.27 µM
  TGI: 5.41 µM
[39]
  GI50: 0.293 µM
  TGI: 1.82 µM
[40]
  GI50: 0.439 µM
  TGI: 2.91 µM
[41]
  GI50: 0.891 µM
  TGI: 3.06 µM
[54]
  GI50: 2.44 µM
  TGI: 20.9 µM
[55]
  GI50: 1.98 µM
  TGI: 6.44 µM
[42]
  GI50: 1.61 µM
  TGI: 3.94 µM
[43]
  GI50: 1.72 µM
  TGI: 13.9 µM
[44]
  GI50: 0.693 µM
  TGI: 2.82 µM
[45]
  GI50: 1.04 µM
  TGI: 8 µM
[56]
  GI50: 1.22 µM
  TGI: 3.2 µM
[57]
  GI50: 0.341 µM
  TGI: 1.31 µM
[46]
  GI50: 0.764 µM
  TGI: 19.7 µM
[47]
  GI50: 15.8 µM
  TGI: 92.2 µM
[48]
  GI50: 0.429 µM
  TGI: 1.95 µM
[49]
  GI50: 0.386 µM
  TGI: 2.04 µM
[50]
  GI50: 3.74 µM
  TGI: 16.9 µM
[51]
  GI50: 1.36 µM
  TGI: 3.55 µM
[52]
  GI50: 1.01 µM
  TGI: 13 µM
